In brackets after ≈: the same amount, converted by molar mass. Entries after “also recorded” stand apart in the source; their conditions may differ. Read-outs that look alike come from different tables or passages of the source.
How the values were obtained:
E. coli MurC = E. coli MurC (Escherichia coli, UniProt P17952); assay: MurC inhibition assay (Malachite green); format: biochemical; conditions: 0.25 h; residual activity at 100 µM compound; mean ± SD of three independent experiments; read-out: RA (%) @ 100 µM MurC
E. coli MurC, sequence (P17952 whole entry): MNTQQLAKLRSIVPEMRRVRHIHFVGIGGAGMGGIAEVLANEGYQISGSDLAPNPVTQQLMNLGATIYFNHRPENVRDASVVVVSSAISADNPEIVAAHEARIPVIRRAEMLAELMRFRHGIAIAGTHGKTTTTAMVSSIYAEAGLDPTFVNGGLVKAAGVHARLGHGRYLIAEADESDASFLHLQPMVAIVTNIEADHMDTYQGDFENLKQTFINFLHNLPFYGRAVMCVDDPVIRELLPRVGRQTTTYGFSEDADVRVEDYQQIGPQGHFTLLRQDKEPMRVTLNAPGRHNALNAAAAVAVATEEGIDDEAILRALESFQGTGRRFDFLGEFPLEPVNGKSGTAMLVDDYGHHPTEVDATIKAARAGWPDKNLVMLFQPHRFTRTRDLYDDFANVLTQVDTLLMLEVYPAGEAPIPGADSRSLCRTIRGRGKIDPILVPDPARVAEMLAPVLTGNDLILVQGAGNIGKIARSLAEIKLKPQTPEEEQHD
Protocol: (§1) Inhibition of the Mur ligases was determined using the Malachite green assay, with slight modifications. […] In all cases, the final concentration of DMSO was 5% (v/v).
(§2) After incubation for 15 min at 37 °C, the enzyme reaction was terminated by the addition of 100 µM Biomol green reagent®, and the absorbance was measured at 650 nm after 5 min. Experiments to determine the RA run in triplicate. Residual activities were calculated with respect to control assays without the tested compounds, but with the 5% DMSO carrier. The IC50 values were determined by measuring the residual activities at seven different compound concentrations, and they represent the concentration of the compound at which the residual activity was 50%. IC50 values were obtained by plotting the residual enzyme activities against the applied inhibitor concentrations, fitting the experimental data to the 4-parameter Hill equation: Y=Bottom-Top-Bottom/1+10^logIC50-X×HillSlope , where X is the logarithm of the inhibitor concentration, and Y is the residual activity. The IC50 values were determined in three independent experiments. GraphPad Prism 8.2.0 (GraphPad Software, San Diego, CA, USA) was used for the fitting procedure.
(§3) The assay detects the phosphate formed in each enzyme reaction. To avoid any possibility of the compounds inhibiting the enzymes due to aggregation, a detergent (0.005% Triton-X114) was added to the test system.

E. coli MurD = E. coli MurD (Escherichia coli, UniProt P14900); assay: MurD inhibition assay (Malachite green); format: biochemical; conditions: 0.25 h; residual activity at 100 µM compound; mean ± SD of three independent experiments; read-out: RA (%) @ 100 µM MurD
E. coli MurD, sequence (P14900 whole entry): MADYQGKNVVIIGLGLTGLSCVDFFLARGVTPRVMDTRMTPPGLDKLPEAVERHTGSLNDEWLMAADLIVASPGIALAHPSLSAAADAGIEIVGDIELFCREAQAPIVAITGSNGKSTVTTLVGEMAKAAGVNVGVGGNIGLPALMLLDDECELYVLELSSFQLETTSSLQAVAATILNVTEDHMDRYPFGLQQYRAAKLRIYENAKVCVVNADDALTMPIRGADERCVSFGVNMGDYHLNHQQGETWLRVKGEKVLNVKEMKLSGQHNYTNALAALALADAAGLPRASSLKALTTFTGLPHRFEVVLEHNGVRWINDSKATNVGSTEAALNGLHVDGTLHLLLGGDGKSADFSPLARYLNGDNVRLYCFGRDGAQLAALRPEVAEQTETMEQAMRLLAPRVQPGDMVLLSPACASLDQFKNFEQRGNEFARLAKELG
Protocol: as §1, §2, §3

E. coli MurE = E. coli MurE (Escherichia coli, UniProt P22188); assay: MurE inhibition assay (Malachite green); format: biochemical; conditions: for remaining activity at 100 µM: 0.25 h, residual activity at 100 µM compound, mean ± SD of three independent experiments, read-out: RA (%) @ 100 µM MurE
E. coli MurE, sequence (P22188 whole entry): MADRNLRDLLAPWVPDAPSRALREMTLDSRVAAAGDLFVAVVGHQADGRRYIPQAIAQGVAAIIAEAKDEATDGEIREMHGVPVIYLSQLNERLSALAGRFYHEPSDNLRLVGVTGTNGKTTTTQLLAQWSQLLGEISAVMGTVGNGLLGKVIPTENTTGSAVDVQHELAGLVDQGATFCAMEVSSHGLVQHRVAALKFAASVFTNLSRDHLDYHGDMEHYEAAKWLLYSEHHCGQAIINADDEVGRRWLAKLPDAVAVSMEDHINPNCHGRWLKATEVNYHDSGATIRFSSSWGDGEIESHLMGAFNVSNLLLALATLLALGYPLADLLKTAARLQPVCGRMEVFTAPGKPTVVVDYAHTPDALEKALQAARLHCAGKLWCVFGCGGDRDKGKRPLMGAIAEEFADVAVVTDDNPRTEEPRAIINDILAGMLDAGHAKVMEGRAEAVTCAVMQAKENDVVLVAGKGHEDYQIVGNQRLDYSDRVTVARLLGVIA
Protocol: as §1, §2, §3

E. coli MurF = E. coli MurF (Escherichia coli, UniProt P11880); assay: MurF inhibition assay (Malachite green); format: biochemical; conditions: for IC50: seven compound concentrations, 4-parameter Hill fit, three independent experiments; for remaining activity at 100 µM: 0.25 h, residual activity at 100 µM compound, mean ± SD of three independent experiments, read-out: RA (%) @ 100 µM MurF
E. coli MurF, sequence (P11880 whole entry): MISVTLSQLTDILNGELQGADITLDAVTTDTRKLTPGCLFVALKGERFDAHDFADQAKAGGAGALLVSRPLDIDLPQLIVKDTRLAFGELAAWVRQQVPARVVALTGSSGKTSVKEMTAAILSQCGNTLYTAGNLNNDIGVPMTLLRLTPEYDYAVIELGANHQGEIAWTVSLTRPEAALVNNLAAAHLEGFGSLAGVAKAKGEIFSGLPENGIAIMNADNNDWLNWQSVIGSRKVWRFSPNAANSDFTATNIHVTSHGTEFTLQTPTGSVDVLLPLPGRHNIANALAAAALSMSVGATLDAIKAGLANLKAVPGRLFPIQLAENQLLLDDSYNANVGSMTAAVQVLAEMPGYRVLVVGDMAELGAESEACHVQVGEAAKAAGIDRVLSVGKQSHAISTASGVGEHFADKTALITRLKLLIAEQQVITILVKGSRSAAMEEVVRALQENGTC
Protocol: as §1, §2, §3

E. coli (ATCC 25,922) = assay: Antibacterial assay, broth microdilution MIC; format: cell-based; conditions: for MIC: Escherichia coli, read-out: MIC E.coli
Protocol: (§4) Antimicrobial testing was performed by the broth microdilution method in 96-well plates following the Clinical and Laboratory Standards Institute guidelines and European Committee on Antimicrobial Susceptibility Testing recommendations (Clinical and Laboratory Standards Institute). Bacterial suspensions equivalent to 0.5 McFarland turbidity standard were diluted with cation-adjusted Mueller–Hinton broth with TES buffering (ThermoFisher Scientific), for a final inoculum of 10^5 CFU/ mL. Compounds dissolved in DMSO and the inoculum were mixed and incubated for 20 h at 35 °C. […] The MICs were determined against two reference bacterial strains, S. aureus (ATCC 29,213) and E. coli (ATCC 25,922). Tetracycline was used as the positive control on every assay plate, with MICs of 0.5 and 1 µg/mL for S. aureus and E. coli, respectively. All MICs were determined in three independent experiments.

S. aureus (ATCC 29,213) = assay: Antibacterial assay, broth microdilution MIC; format: cell-based; conditions: for MIC: Staphylococcus aureus
Protocol: as §4

MurF from E. coli = MurF from E. coli (Escherichia coli, UniProt P11880); assay: Steady-state kinetic analysis of compound 21; format: biochemical
MurF from E. coli, sequence (P11880 whole entry): as above
Protocol: For compound 21, Ki values were determined against MurF from E. coli. Ki determinations were performed under similar conditions to those described for the inhibition assay, where the different concentrations of one substrate and a fixed concentration of the other two were used. First, the concentration of UM3DAP was varied (25, 50, 100, 200 µM) at fixed ATP (500 µM) and D-Ala-D-Ala (600 µM)), then the concentration of D-Ala-D-Ala was varied (50, 100, 200, 400, 600 µM) at fixed ATP (500 µM) and UM3DAP (100 µM), and finally, the concentration of ATP was varied (50, 100, 350, 500 µM) at fixed UM3DAP (100 µM) and D-Ala-D-Ala (600 µM). The concentrations of 21 were 0, 25, 50, 75, 100, 200, 350 and 500 µM and the concentration of the MurF was 20 nM. After a 15 min incubation, 100 µM Biomol green reagent® was added, and the absorbance was read at 650 nm after 5 min. All experiments were run in triplicate.
The data were analysed using the SigmaPlot 12.0 software. The initial velocities were fitted to competitive, non-competitive, uncompetitive and mixed enzyme inhibition. The Ki and mode of inhibition from the best ranking model were used, as provided by the software.

[1] = Solubility under the Mur ligase assay conditions; format: physicochemical
[2] = ATCC25, broth microdilution, 20 h at 35 °C
[3] = ATCC29, broth microdilution, 20 h at 35 °C, read-out: MIC S.aureus

| Structure (SMILES) | remaining activity at 100 µM (E. coli MurC) [%] | remaining activity at 100 µM (E. coli MurD) [%] | remaining activity at 100 µM (E. coli MurE) [%] | IC50 (E. coli MurF) [µM] | MIC (E. coli (ATCC 25,922); [2]) [µM] | MIC (S. aureus (ATCC 29,213); [3]) [µM] | Inhibition of growth of S. aureus (in words) (S. aureus (ATCC 29,213); broth microdilution) | remaining activity at 100 µM (E. coli MurF) [%] | also measured |
| --- | --- | --- | --- | --- | --- | --- | --- | --- | --- |
| Oc1cc(O)c2c(c1)O[C@H](c1ccc(O)c(O)c1)[C@H](O)C2 [Compound 21, (–)-epicatechin] | 92 ± 8 | 94 ± 9 | 79 ± 8 | 92 ± 13 | > 250 | > 250 | inactive |  | Inhibition of growth of E. coli (in words) (E. coli (ATCC 25,922); broth microdilution): inactive; Ki (MurF from E. coli; substrate ATP varied, UM3DAP 100 µM, D-Ala-D-Ala 600 µM fixed): 28.5 ± 2.7 µM; Ki (MurF from E. coli; substrate D-Ala-D-Ala varied, ATP 500 µM, UM3DAP 100 µM fixed): 58.2 ± 5.1 µM; Ki (MurF from E. coli; substrate UM3DAP varied, ATP 500 µM, D-Ala-D-Ala 600 µM fixed): 70.1 ± 4 µM; Mechanism of inhibition (MurF from E. coli; with respect to ATP): mixed inhibition; also recorded: mixed inhibitor; also recorded: Mixed (partial); α (mixed partial inhibition model) (MurF from E. coli; with respect to ATP): 1.5; β (mixed partial inhibition model) (MurF from E. coli; with respect to ATP): 0.4545; Mechanism of inhibition (MurF from E. coli; with respect to ATP, listed as (–)-epicatechin): mixed type inhibition; Mechanism of inhibition (MurF from E. coli; with respect to D-Ala-D-Ala): uncompetitive inhibitor; also recorded: Uncompetitive (partial); Mechanism of inhibition (MurF from E. coli; with respect to D-Ala-D-Ala, listed as (–)-epicatechin): uncompetitive inhibition; Mechanism of inhibition (MurF from E. coli; with respect to UM3DAP): uncompetitive inhibitor; also recorded: Uncompetitive (partial); Mechanism of inhibition (MurF from E. coli; with respect to UM3DAP, listed as (–)-epicatechin): uncompetitive inhibition |
| COc1cc(O)c(CC=C(C)C)c(O)c1C(=O)/C=C/c1ccc(O)cc1 [Compound 23, xanthohumol] | 86 ± 8 | 91 ± 10 | 82 ± 7 |  | > 250 | 31 (≈ 11 µg/mL) | inhibit the growth | 72 ± 8 | MIC (S. aureus (ATCC 29,213); ATCC29, broth microdilution, 20 h at 35 °C, read-out: MIC S. aureus): 31 µM (≈ 11 µg/mL) |
| COc1cc(O)c2c(=O)c(O)c(-c3ccc(O)c(O)c3)oc2c1 [Compound 13] | 66 ± 7 | 71 ± 8 | 82 ± 8 |  | > 250 | > 250 |  | 51 ± 6 |  |
| COc1cc(O)c(CC=C(C)C)c2c1C(=O)C[C@@H](c1ccc(O)cc1)O2 [Compound 2] | 86 ± 8 | 100 ± 10 | 77 ± 7 |  | > 250 | 250 (≈ 88.6 µg/mL) | inhibit the growth | 78 ± 9 |  |
| C[C@@H]1O[C@@H](Oc2c(-c3ccc(O)c(O)c3)oc3cc(O)cc(O)c3c2=O)[C@H](O)[C@H](O)[C@H]1O [Compound 10, quercitrin] | 98 ± 10 | 77 ± 9 | 98 ± 9 | 143 ± 18 |  |  | inactive |  | MIC (E. coli (ATCC 25,922); ATCC25, 20 h): > 250 µM; Inhibition of growth of E. coli (in words) (E. coli (ATCC 25,922); broth microdilution): inactive; MIC (S. aureus (ATCC 29,213); ATCC29, 20 h, read-out: MIC S.aureus): > 250 µM |
| CC1OC(OCC2OC(Oc3c(-c4ccc(O)c(O)c4)oc4cc(O)cc(O)c4c3=O)C(O)C(O)C2O)C(O)C(O)C1O (centres unmarked) [Compound 7] | 100 ± 10 | 97 ± 9 | 100 ± 10 |  | > 250 | > 250 |  | 89 ± 10 |  |
| Oc1cc(O)c2c(c1)O[C@H](c1ccc(O)c(O)c1)[C@@H](O)[C@H]2O [Compound 20, Leucocyanidin] | 95 ± 8 | 91 ± 9 |  | 28 ± 8 | > 250 | > 250 |  |  | IC50 (E. coli MurE; seven compound concentrations, 4-parameter Hill fit, three independent experiments): 164 ± 14 µM; Solubility under the assay conditions (in words) [1]: poor solubility |
| CC(C)=CCc1c(O)cc(O)c2c1O[C@H](c1ccc(O)cc1)CC2=O [Compound 3] | 95 ± 10 | 100 ± 8 | 87 ± 9 |  | > 250 | 62 (≈ 21.1 µg/mL) | inhibit the growth | 71 ± 7 |  |
| CC1OC(Oc2c(-c3cc(O)c(O)c(O)c3)oc3cc(O)cc(O)c3c2=O)C(O)C(O)C1O (centres unmarked) [Compound 11] | 97 ± 7 | 89 ± 7 | 100 ± 10 |  | > 250 | > 250 |  | 86 ± 9 |  |
| O=C1C[C@@H](c2ccc(O)cc2)Oc2cc(O)cc(O)c21 [Compound 5] | 97 ± 8 | 100 ± 9 | 98 ± 9 |  | > 250 | > 250 |  | 87 ± 9 |  |

Source: publication PMC10618370, “Mur ligase F as a new target for the flavonoids quercitrin, myricetin, and (–)-epicatechin” (Journal of Computer-Aided Molecular Design, 2023)
